This is an account of results in patent publication US11851449B2, “Heterocyclic amide compounds having an RORvt inhibitory action” (TAKEDA PHARMACEUTICAL COMPANY LIMITED, priority 2013, dated 2023).

Like-named read-outs stand apart in the source and are kept apart here.

Assay [1] has as its target T1, RORγt (Homo sapiens, UniProt P51449).
T1 sequence (P51449 1-497 isoform P51449-2): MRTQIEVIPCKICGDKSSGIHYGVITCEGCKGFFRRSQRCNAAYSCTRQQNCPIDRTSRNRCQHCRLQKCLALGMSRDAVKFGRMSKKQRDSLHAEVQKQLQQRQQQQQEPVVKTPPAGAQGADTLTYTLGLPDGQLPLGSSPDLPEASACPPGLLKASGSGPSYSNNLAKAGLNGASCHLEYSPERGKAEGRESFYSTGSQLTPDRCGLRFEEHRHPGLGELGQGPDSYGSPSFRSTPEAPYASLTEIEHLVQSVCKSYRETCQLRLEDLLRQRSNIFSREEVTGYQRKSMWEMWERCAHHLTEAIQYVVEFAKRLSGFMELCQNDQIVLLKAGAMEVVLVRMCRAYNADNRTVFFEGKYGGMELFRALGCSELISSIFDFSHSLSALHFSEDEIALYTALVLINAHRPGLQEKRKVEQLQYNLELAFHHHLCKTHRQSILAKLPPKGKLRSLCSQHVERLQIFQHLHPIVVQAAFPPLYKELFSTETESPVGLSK
Description: Cofactor recruitment test (Alpha Screen, biotinylated SRC-1 peptide). In kind it is biochemical. As to conditions: read-out: signal value inhibitory rate (%) at test compound 1 μM. On the procedure:
Cofactor Recruitment Test
Cofactor recruitment test was performed by Alpha Screen (Histidine Detection Kit, PerkinElmer) method. First, a test compound was diluted with an assay buffer (50 mM Tris-HCl (pH 7.5), 50 mM KCl, 1 mM DTT, 0.1% BSA) and added to a 384 well plate by 5 μL. […] The mixture was stood in a dark place for 1 hr, and the signal value was measured by Envision (PerkinElmer).

Assay [2] has as its target T1, RORγt. Description: RORγt binding test (TR-FRET, fluorescent-labeled cholesterol). As to conditions: read-out: binding inhibitory rate (%) of fluorescent-labeled cholesterol to RORγt at test compound 1 μM. Summed up: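 His-tagged RORγt and BODIPY-cholesterol were incubated with compound for 20 min at room temperature in Tris-HCl pH 7.5, 100 mM NaCl, 1 mM DTT and 0.1% BSA. Terbium anti-His antibody was then added for a further 20 min.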

Assay [3] has as its target T1, RORγt. Briefly: Jurkat reporter test (human IL-17 ROR response element luciferase reporter). In kind it is cell-based. As to conditions: read-out: luminescence level inhibitory rate (%) at test compound 3 μM. Summed up:
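Luminescence (Bright-Glo, 10 min, RT) was measured after overnight compound treatment of electroporated Jurkat cells (1350 V, 10 ms interval, 3 pulses). The reaction medium was RPMI with 10% lipid-reduced FCS, 10 mM HEPES (pH 7.5) and 5 μM lovastatin.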

Where [4] appears, read: test compound 3 μM, Jurkat cells.

As for `COCc1ccc(C(C(=O)Nc2cc(F)c([Si](C)(C)C)cc2F)N(C)C(=O)c2cc(O)no2)cc1` (stereo not drawn) [Example 43, N-(2-((2,5-difluoro-4-(trimethylsilyl)phenyl)amino)-1-(4-(methoxymethyl)phenyl)-2-oxoethyl)-3-hydroxy-N-methyl-1,2-oxazole-5-carboxamide], the results for the inhibition at 1 µM at RORγt [1] and on RORγt [2] were 96.1% and 102%, respectively. For the same compound, at RORγt [3] (Jurkat), the inhibition at 3 µM stood at 100%.
For `COCc1ccc([C@@H](NC(=O)Cn2ccc(=O)cn2)C(=O)Nc2ccc([Si](C)(C)C)c(F)c2)cc1` [Example 63, (2R)—N-(3-fluoro-4-(trimethylsilyl)phenyl)-2-(4-(methoxymethyl)phenyl)-2-(((4-oxopyridazin-1(4H)-yl)acetyl)amino)acetamide], the inhibition at 1 µM at RORγt [1] was determined as 95.1%; on RORγt [2] it was 103%. Besides, the inhibition at 3 µM at RORγt [3] (Jurkat) was determined as 99.7%.
Taken in the same sequence, the figures for `COc1ccc([C@@H](NC(=O)[C@H]2CNC(=O)C2)C(=O)Nc2ccc([Si](C)(C)C)c(F)c2)cc1` [Example 70, (3R)—N-((1R)-2-((3-fluoro-4-(trimethylsilyl)phenyl)amino)-1-(4-methoxyphenyl)-2-oxoethyl)-5-oxopyrrolidine-3-carboxamide] were 82.8%, 101% and 96.5%.
`Cc1nnc(CC(=O)NC(C(=O)Nc2cc(F)c([Si](C)(C)C)c(F)c2)C2CCOCC2)o1` (stereo not drawn) [Example 2, N-(3,5-difluoro-4-(trimethylsilyl)phenyl)-2-(((5-methyl-1,3,4-oxadiazol-2-yl)acetyl)amino)-2-(tetrahydro-2H-pyran-4-yl)acetamide]: the figures for the inhibition at 1 µM at RORγt [1] and at RORγt [2] were 78% and 102%, respectively. Also, the inhibition at 3 µM on RORγt [3] (Jurkat) was found to be 98.1%.
As to `CC(C)(C)c1ccc(NC(=O)[C@H](NC(=O)CC(F)(F)F)C2CCOCC2)cc1Cl` [Example 9, N-((1R)-2-((4-tert-butyl-3-chlorophenyl)amino)-2-oxo-1-(tetrahydro-2H-pyran-4-yl)ethyl)-3,3,3-trifluoropropanamide], the inhibition at 1 µM at RORγt [1] is 29.7%; at RORγt [2], 100%. Moreover, the inhibition at 3 µM on RORγt [3] (setting [4]) turned out to be 97.6%.
For `CCC(=O)N[C@@H](C(=O)Nc1ccc([Si](C)(C)C)c(F)c1)c1ccc(COC)cc1` [Example 79, N-((1R)-2-((3-fluoro-4-(trimethylsilyl)phenyl)amino)-1-(4-(methoxymethyl)phenyl)-2-oxoethyl)propanamide], the inhibition at 1 µM on RORγt [1] worked out at 93%; on RORγt [2] it was 103%. For the same compound, the inhibition at 3 µM on RORγt [3] (Jurkat) was determined as 98.4%.
In the case of `COCc1ccc([C@@H](NC(=O)CCS(C)(=O)=O)C(=O)Nc2ccc([Si](C)(C)C)c(F)c2)cc1` [Example 80, N-((1R)-2-((3-fluoro-4-(trimethylsilyl)phenyl)amino)-1-(4-(methoxymethyl)phenyl)-2-oxoethyl)-3-(methylsulfonyl)propanamide], the inhibition at 1 µM was determined as 93.8% at RORγt [1] and 102% at RORγt [2]. The inhibition at 3 µM on RORγt [3] (Jurkat) amounted to 100%.
Turning to `COCc1ccc([C@@H](NC(=O)CC2CC(=O)NC(=O)C2)C(=O)Nc2ccc(C(C)(C)C)c(F)c2)cc1` [Example 117, (2R)—N-(4-tert-butyl-3-fluorophenyl)-2-(((2,6-dioxopiperidin-4-yl)acetyl)amino)-2-(4-(methoxymethyl)phenyl)acetamide], the inhibition at 1 µM was 78.4% at RORγt [1] and 103% at RORγt [2]. In addition, the inhibition at 3 µM at RORγt [3] (setting [4]) came to 98.5%.
For the compound `COCc1ccc([C@@H](NC(=O)N2CC(O)C2)C(=O)Nc2ccc([Si](C)(C)C)c(F)c2)cc1` [Example 69, N-((1R)-2-((3-fluoro-4-(trimethylsilyl)phenyl)amino)-1-(4-(methoxymethyl)phenyl)-2-oxoethyl)-3-hydroxyazetidine-1-carboxamide], the inhibition at 1 µM on RORγt [1] is 96.8%; on RORγt [2], 103%. Also, on RORγt [3] (Jurkat), the inhibition at 3 µM turned out to be 98.4%.
`COCc1ccc([C@H](C(=O)Nc2cc(F)c([Si](C)(C)C)c(F)c2)N(C)C(=O)c2cc(O)no2)cc1` [Example 77, N-((1R)-2-((3,5-difluoro-4-(trimethylsilyl)phenyl)amino)-1-(4-(methoxymethyl)phenyl)-2-oxoethyl)-3-hydroxy-N-methyl-1,2-oxazole-5-carboxamide]: the inhibition at 1 µM at RORγt [1] was 97.3%; on RORγt [2] it was 103%. On RORγt [3] (Jurkat), the inhibition at 3 µM amounted to 99.7%.
For `COc1ccc([C@@H](NC(=O)c2cc(O)no2)C(=O)Nc2ccc([Si](C)(C)C)c(F)c2)cc1` [Example 83, N-((1R)-2-((3-fluoro-4-(trimethylsilyl)phenyl)amino)-1-(4-methoxyphenyl)-2-oxoethyl)-3-hydroxy-1,2-oxazole-5-carboxamide], the inhibition at 1 µM on RORγt [1] is 86.5%; on RORγt [2], 100%. Further, at RORγt [3] (Jurkat), the inhibition at 3 µM came to 63.2%.
Regarding `COCc1ccc([C@@H](NC(=O)Cn2ccc(=O)[nH]c2=O)C(=O)Nc2ccc([Si](C)(C)C)c(F)c2)cc1` [Example 59, (2R)-2-(((2,4-dioxo-3,4-dihydropyrimidin-1(2H)-yl)acetyl)amino)-N-(3-fluoro-4-(trimethylsilyl)phenyl)-2-(4-(methoxymethyl)phenyl)acetamide], the inhibition at 1 µM at RORγt [1] was 96%; on RORγt [2], 102%. The inhibition at 3 µM at RORγt [3] (Jurkat) is 99.2%.
For `COCc1ccc([C@@H](NC(=O)N2CC[C@H](O)C2)C(=O)Nc2ccc([Si](C)(C)C)c(F)c2)cc1` [Example 65, (3S)—N-((1R)-2-((3-fluoro-4-(trimethylsilyl)phenyl)amino)-1-(4-(methoxymethyl)phenyl)-2-oxoethyl)-3-hydroxypyrrolidine-1-carboxamide] the same measures were 94.3%, 102% and 98.5%.
For `COCc1ccc(C(NC(=O)Cc2nnc(C)o2)C(=O)Nc2ccc([Si](C)(C)C)c(F)c2)cc1` (stereo not drawn) [Example 35, N-(3-fluoro-4-(trimethylsilyl)phenyl)-2-(4-(methoxymethyl)phenyl)-2-(((5-methyl-1,3,4-oxadiazol-2-yl)acetyl)amino)acetamide] the same measures were 96.6%, 103% and 101%.
As to `COCc1ccc([C@@H](NC(=O)Cn2cnccc2=O)C(=O)Nc2ccc(C(C)(C)C)c(F)c2)cc1` [Example 100, (2R)—N-(4-tert-butyl-3-fluorophenyl)-2-(4-(methoxymethyl)phenyl)-2-(((6-oxopyrimidin-1(6H)-yl)acetyl)amino)acetamide], the figures for the inhibition at 1 µM on RORγt [1] and on RORγt [2] were 86.3% and 99.6%, respectively. In addition, the inhibition at 3 µM at RORγt [3] (setting [4]) amounted to 99.4%.
Consider `COc1ccc(C(NC(=O)N2CC(O)C2)C(=O)Nc2ccc([Si](C)(C)C)c(F)c2)cc1` (stereo not drawn) [Example 30, N-(2-((3-fluoro-4-(trimethylsilyl)phenyl)amino)-1-(4-methoxyphenyl)-2-oxoethyl)-3-hydroxyazetidine-1-carboxamide], for which the inhibition at 1 µM on RORγt [1] is 95.1%; at RORγt [2], 98.5%. Also, at RORγt [3] (Jurkat), the inhibition at 3 µM came out at 99.8%.
Taken in the same sequence, the figures for `COc1ccc(C(NC(=O)Cc2cc(C)no2)C(=O)Nc2ccc([Si](C)(C)C)cc2)cc1` (stereo not drawn) [Example 18, 2-(4-methoxyphenyl)-2-(((3-methyl-1,2-oxazol-5-yl)acetyl)amino)-N-(4-(trimethylsilyl)phenyl)acetamide] were 60.3%, 101% and 90.9%.
Taken in the same sequence, the figures for `COc1ccc(C(C(=O)Nc2ccc([Si](C)(C)C)c(F)c2)N(C)C(=O)c2cc(O)no2)cc1` (stereo not drawn) [Example 15, N-(2-((3-fluoro-4-(trimethylsilyl)phenyl)amino)-1-(4-methoxyphenyl)-2-oxoethyl)-3-hydroxy-N-methyl-1,2-oxazole-5-carboxamide] were 91.6%, 109% and 99.4%.
Taken in the same sequence, the figures for `COCc1ccc([C@@H](NC(=O)CN2C(=O)CNC2=O)C(=O)Nc2ccc([Si](C)(C)C)c(F)c2)cc1` [Example 62, (2R)-2-(((2,5-dioxoimidazolidin-1-yl)acetyl)amino)-N-(3-fluoro-4-(trimethylsilyl)phenyl)-2-(4-(methoxymethyl)phenyl)acetamide] were 96.3%, 99.9% and 97.8%.
